According to patent US10435431B2, “3,3 disubstituted 19-nor pregnane compounds, compositions, and uses thereof” (Sage Therapeutics, Inc., priority 2011, dated 2019):

Key:
[1] = target: [35S]-TBPS binding, rat brain cortical membranes; assay: Steroid inhibition of [35S]-TBPS binding; details: 2 nM [35S]-TBPS, in the presence of 5 μM GABA
Description: Steroid Inhibition of TBPS Binding
TBPS binding assays using rat brain cortical membranes in the presence of 5 μM GABA has been described (Gee et al, J. Pharmacol. Exp. Ther. 1987, 241, 346-353; Hawkinson et al, Mol. Pharmacol. 1994, 46, 977-985).
Briefly, cortices are rapidly removed following decapitation of carbon dioxide-anesthetized Sprague-Dawley rats (200-250 g). The cortices are homogenized in 10 volumes of ice-cold 0.32 M sucrose using a glass/teflon homogenizer and centrifuged at 1500×g for 10 min at 4° C. The resultant supernatants are centrifuged at 10,000×g for 20 min at 4° C. to obtain the P2 pellets. The P2 pellets are resuspended in 200 mM NaCl/50 mM Na—K phosphate pH 7.4 buffer and centrifuged at 10,000×g for 10 min at 4° C. This ishing procedure is repeated twice and the pellets are resuspended in 10 volumes of buffer. Aliquots (100 μL) of the membrane suspensions are incubated with 2 nM [^35S]-TBPS and 5 μL aliquots of test drug dissolved in dimethyl sulfoxide (DMSO) (final 0.5%) in the presence of 5 μM GABA. The incubation is brought to a final volume of 1.0 mL with buffer. Nonspecific binding is determined in the presence of 2 μM unlabeled TBPS and ranged from 15 to 25%. Following a 90 min incubation at room temp, the assays are terminated by filtration through glass fiber filters (Schleicher and Schuell No. 32) using a cell harvester (Brandel) and rinsed three times with ice-cold buffer. Filter bound radioactivity is measured by liquid scintillation spectrometry. Non-linear curve fitting of the overall data for each drug averaged for each concentration is done using Prism (GraphPad). […] The concentration of test compound producing 50% inhibition (IC50) of specific binding and the maximal extent of inhibition (Imax) are determined for the individual experiments with the same model used for the overall data and then the means±SEM.s of the individual experiments are calculated.
Various compounds are or can be screened to determine their potential as modulators of [^35S]-TBPS binding in vitro. These assays are or can be performed in accordance with the above discussed procedures.

[2] = target: T1, Recombinant α1β2γ2 GABAA Receptors (Homo sapiens, UniProt P14867+P47870); assay: Patch clamp electrophysiology of recombinant α1β2γ2 GABAA receptors, potentiation of GABA mediated currents; assay type: cell-based; details: Ltk cells, GABA EC10=0.5 μM, whole cell patch clamp; for % potentiation at 100 nM: test article 100 nM; for % potentiation at 1000 nM: test article 1000 nM; for % potentiation at 10000 nM: test article 10000 nM
T1 construct: expressed in transfected cells; host or cells: Ltk cells
T1 sequence (P14867 28-456): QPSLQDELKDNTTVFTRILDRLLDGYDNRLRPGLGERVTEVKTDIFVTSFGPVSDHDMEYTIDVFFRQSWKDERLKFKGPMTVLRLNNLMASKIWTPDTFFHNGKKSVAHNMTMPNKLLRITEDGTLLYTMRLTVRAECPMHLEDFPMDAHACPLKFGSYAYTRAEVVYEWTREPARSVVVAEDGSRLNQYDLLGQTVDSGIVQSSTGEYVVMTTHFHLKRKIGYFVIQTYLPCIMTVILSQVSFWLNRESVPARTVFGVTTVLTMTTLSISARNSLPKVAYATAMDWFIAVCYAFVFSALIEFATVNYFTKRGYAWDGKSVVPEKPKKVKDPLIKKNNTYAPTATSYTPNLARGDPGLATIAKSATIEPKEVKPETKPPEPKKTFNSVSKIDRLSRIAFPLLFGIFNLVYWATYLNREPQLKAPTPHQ
T1 sequence (P47870 25-512 limits assumed): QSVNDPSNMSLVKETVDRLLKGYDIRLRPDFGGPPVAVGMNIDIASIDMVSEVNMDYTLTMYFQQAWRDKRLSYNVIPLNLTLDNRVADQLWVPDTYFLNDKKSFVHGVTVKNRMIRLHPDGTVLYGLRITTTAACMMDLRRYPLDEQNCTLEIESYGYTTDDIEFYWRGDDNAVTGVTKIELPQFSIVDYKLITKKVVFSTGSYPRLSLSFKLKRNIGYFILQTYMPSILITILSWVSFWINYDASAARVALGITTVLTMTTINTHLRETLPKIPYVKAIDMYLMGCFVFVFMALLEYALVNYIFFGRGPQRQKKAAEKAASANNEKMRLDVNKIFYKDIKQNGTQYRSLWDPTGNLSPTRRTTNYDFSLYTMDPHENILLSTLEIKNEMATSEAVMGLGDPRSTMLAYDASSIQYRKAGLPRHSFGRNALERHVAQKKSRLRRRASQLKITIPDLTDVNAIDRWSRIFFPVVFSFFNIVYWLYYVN
T1 sequence (P18507 40-475 partner): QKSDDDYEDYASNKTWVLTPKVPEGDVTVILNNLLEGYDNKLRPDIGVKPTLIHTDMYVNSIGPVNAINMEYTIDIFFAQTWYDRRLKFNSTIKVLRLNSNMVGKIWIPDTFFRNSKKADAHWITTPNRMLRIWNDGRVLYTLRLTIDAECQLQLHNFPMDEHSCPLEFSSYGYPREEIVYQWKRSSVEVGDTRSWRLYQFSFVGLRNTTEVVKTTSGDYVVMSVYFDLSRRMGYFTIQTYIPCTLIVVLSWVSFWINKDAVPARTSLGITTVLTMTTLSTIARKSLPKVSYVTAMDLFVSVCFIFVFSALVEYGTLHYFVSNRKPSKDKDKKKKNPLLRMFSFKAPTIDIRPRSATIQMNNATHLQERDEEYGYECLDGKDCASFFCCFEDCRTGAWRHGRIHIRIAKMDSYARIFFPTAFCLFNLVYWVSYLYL
Description: Patch Clamp Electrophysiology of Recombinant α1β2γ2 GABAA Receptors
Cellular electrophysiology is used to measure in vitro potency and efficacy of our GABAA receptor modulators in Ltk cells. Each compound is tested for its ability to affect GABA mediated currents at a submaximal agonist dose (GABA EC10=0.5 μM) in a whole cell patch clamp technique using a EPC-10, HEKA Electronics Amplifier and PatchMaster software. These experiments measure potency, efficacy (Emax), direct gating properties and acute desensitization. Test article is added at 0.1, 1.0 and 10 uM.

Structure (SMILES) | IC50 [1] [nM] | % potentiation at 100 nM [2] [%] | % potentiation at 1000 nM [2] [%] | % potentiation at 10000 nM [2] [%]
COC[C@@]1(O)CC[C@H]2[C@H](CC[C@@H]3[C@@H]2CC[C@]2(C)[C@@H](C(=O)CO)CC[C@@H]32)C1 | 170 |  |  | 
C[C@@]1(O)CC[C@H]2[C@H](CC[C@@H]3[C@@H]2CC[C@]2(C)[C@@H](C(=O)CO)CC[C@@H]32)C1 | 86 | 101 | 163 | 
CC(=O)[C@H]1CC[C@H]2[C@@H]3CC[C@H]4C[C@](C)(O)CC[C@@H]4[C@H]3CC[C@]12C | 93 | 80 | 157 | 270
COC[C@@]1(O)CC[C@H]2[C@H](CC[C@@H]3[C@@H]2CC[C@]2(C)[C@@H](C(C)=O)CC[C@@H]32)C1 | 41 |  |  | 
C[C@@]1(O)CC[C@H]2[C@@H](CC[C@@H]3[C@@H]2CC[C@]2(C)[C@@H](C(=O)CO)CC[C@@H]32)C1 | 220 |  | 130 | 227
C[C@]12CC[C@H]3[C@@H](CC[C@H]4C[C@@](O)(C(F)F)CC[C@@H]43)[C@@H]1CC[C@@H]2C(=O)CO | > 10000 |  | 0 | 100
CC(=O)[C@H]1CC[C@H]2[C@@H]3CC[C@@H]4C[C@@](O)(C(F)F)CC[C@@H]4[C@H]3CC[C@]12C | 33 |  |  | 
COC[C@@]1(O)CC[C@H]2[C@@H](CC[C@@H]3[C@@H]2CC[C@]2(C)[C@@H](C(=O)CO)CC[C@@H]32)C1 | 94 |  |  | 
CC(=O)[C@H]1CC[C@H]2[C@@H]3CC[C@@H]4C[C@](O)(CF)CC[C@@H]4[C@H]3CC[C@]12C | 100 |  |  | 
